Data published in ChEMBL document CHEMBL1201862, “PubChem BioAssay data set” (2004).
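Compound exposure: 48 hours, 5 concentrations, 96-well plates. GI50 marks 50% less growth.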 Activity calls are given as the source filed them. Rule as the data show it: active = GI50 up to about 1.1 µM and inactive = higher.

Key:
Experiment in all cases: DTP human tumour cell line panel, 48 h
BT-549 = system: BT-549
KM12 = system: KM12
T47D = system: T47D
786-0 = system: 786-0
M14 = system: M14
NCI/ADR-RES = system: NCI/ADR-RES
HOP-92 = system: HOP-92
ACHN = system: ACHN
SK-MEL-2 = system: SK-MEL-2
HOP-62 = system: HOP-62
NCI-H23 = system: NCI-H23
MDA-MB-435 = system: MDA-MB-435
IGROV-1 = system: IGROV-1
UACC-257 = system: UACC-257
Malme-3M = system: Malme-3M
SK-MEL-5 = system: SK-MEL-5
UO-31 = system: UO-31
NCI-H522 = system: NCI-H522
DU-145 = system: DU-145
SR = system: SR
RXF 393 = system: RXF 393
HT-29 = system: HT-29
HCT-116 = system: HCT-116
SNB-75 = system: SNB-75
A549 = system: A549
UACC-62 = system: UACC-62
TK-10 = system: TK-10
SW-620 = system: SW-620
COLO 205 = system: COLO 205
NCI-H460 = system: NCI-H460
CAKI-1 = system: CAKI-1
SK-MEL-28 = system: SK-MEL-28
SK-OV-3 = system: SK-OV-3
OVCAR-8 = system: OVCAR-8
Hs-578T = system: Hs-578T
HCC 2998 = system: HCC 2998
CCRF-CEM = system: CCRF-CEM
K562 = system: K562
MDA-N = system: MDA-N
OVCAR-3 = system: OVCAR-3
SNB-19 = system: SNB-19
OVCAR-5 = system: OVCAR-5
SF-295 = system: SF-295
PC-3 = system: PC-3
MOLT-4 = system: MOLT-4
RPMI-8226 = system: RPMI-8226
HL-60 = system: HL-60
EKVX = system: EKVX
NCI-H226 = system: NCI-H226
MCF7 = system: MCF7
MDA-MB-231 = system: MDA-MB-231
OVCAR-4 = system: OVCAR-4
LOX IMVI = system: LOX IMVI
U-251 = system: U-251
SF-268 = system: SF-268
A498 = system: A498
SN12C = system: SN12C
SF-539 = system: SF-539
HCT-15 = system: HCT-15

How did the GI50 (BT-549) turn out when `CN(C)c1ccc(C=C2C(=O)NC(=S)NC2=O)c2ccccc12` was run?
The GI50 was 61 µM (inactive).

And the GI50 (KM12)?
The GI50 was > 100 µM (inactive).

What about the GI50 (T47D) of the same compound?
The GI50 was > 100 µM (inactive).

What about the GI50 (786-0) of the same compound?
The GI50 was 39.8 µM (inactive).

And the GI50 (M14)?
Its GI50 is > 100 µM (inactive).

What about the GI50 (NCI/ADR-RES) of the same compound?
Its GI50 is > 100 µM (inactive).

And the GI50 (HOP-92)?
Its GI50 is 25.1 µM (inactive).

What about the GI50 (ACHN) of the same compound?
The GI50 was > 100 µM (inactive).

What about the GI50 (SK-MEL-2) of the same compound?
Its GI50 is 62.8 µM (inactive).

And the GI50 (HOP-62)?
The GI50 was > 100 µM (inactive).

What about the GI50 (NCI-H23) of the same compound?
The GI50 was 71.9 µM (inactive).

What about the GI50 (MDA-MB-435) of the same compound?
Its GI50 is 38.9 µM (inactive).

And the GI50 (IGROV-1)?
The GI50 was 36.1 µM (inactive).

What about the GI50 (UACC-257) of the same compound?
The GI50 was > 100 µM (inactive).

And the GI50 (Malme-3M)?
Its GI50 is 49.9 µM (inactive).

And the GI50 (SK-MEL-5)?
The GI50 was > 100 µM (inactive).

What about the GI50 (UO-31) of the same compound?
The GI50 was 60.4 µM (inactive).

And the GI50 (NCI-H522)?
The GI50 was 18.5 µM (inactive).

And the GI50 (DU-145)?
Its GI50 is > 100 µM (inactive).

And the GI50 (SR)?
The GI50 was 33.5 µM (inactive).

And the GI50 (RXF 393)?
The GI50 was 26.3 µM (inactive).

What about the GI50 (HT-29) of the same compound?
Its GI50 is > 100 µM (inactive).

And the GI50 (HCT-116)?
Its GI50 is > 100 µM (inactive).

And the GI50 (SNB-75)?
The GI50 was 30.1 µM (inactive).

What about the GI50 (A549) of the same compound?
The GI50 was > 100 µM (inactive).

What about the GI50 (UACC-62) of the same compound?
The GI50 was > 100 µM (inactive).

What about the GI50 (TK-10) of the same compound?
Its GI50 is > 100 µM (inactive).

And the GI50 (SW-620)?
The GI50 was 46.6 µM (inactive).

What about the GI50 (COLO 205) of the same compound?
Its GI50 is > 100 µM (inactive).

And the GI50 (NCI-H460)?
Its GI50 is > 100 µM (inactive).

What about the GI50 (CAKI-1) of the same compound?
Its GI50 is 98.9 µM (inactive).

What about the GI50 (SK-MEL-28) of the same compound?
The GI50 was 77.4 µM (inactive).

And the GI50 (SK-OV-3)?
Its GI50 is > 100 µM (inactive).

What about the GI50 (OVCAR-8) of the same compound?
Its GI50 is 27 µM (inactive).

What about the GI50 (Hs-578T) of the same compound?
Its GI50 is 26.5 µM (inactive).

What about the GI50 (HCC 2998) of the same compound?
The GI50 was > 100 µM (inactive).

And the GI50 (CCRF-CEM)?
Its GI50 is 38.6 µM (inactive).

What about the GI50 (K562) of the same compound?
The GI50 was 40.9 µM (inactive).

What about the GI50 (MDA-N) of the same compound?
Its GI50 is 42.7 µM (inactive).

What about the GI50 (OVCAR-3) of the same compound?
The GI50 was 50.9 µM (inactive).

What about the GI50 (SNB-19) of the same compound?
Its GI50 is 61.2 µM (inactive).

And the GI50 (OVCAR-5)?
Its GI50 is > 100 µM (inactive).

And the GI50 (SF-295)?
The GI50 was > 100 µM (inactive).

And the GI50 (PC-3)?
The GI50 was > 100 µM (inactive).

And the GI50 (MOLT-4)?
Its GI50 is 29.6 µM (inactive).

What about the GI50 (RPMI-8226) of the same compound?
The GI50 was 39.4 µM (inactive).

And the GI50 (HL-60)?
The GI50 was 33.7 µM (inactive).

What about the GI50 (EKVX) of the same compound?
The GI50 was > 100 µM (inactive).

And the GI50 (NCI-H226)?
Its GI50 is > 100 µM (inactive).

And the GI50 (MCF7)?
Its GI50 is 67.6 µM (inactive).

What about the GI50 (MDA-MB-231) of the same compound?
The GI50 was > 100 µM (inactive).

What about the GI50 (OVCAR-4) of the same compound?
Its GI50 is > 100 µM (inactive).

And the GI50 (LOX IMVI)?
The GI50 was 26.9 µM (inactive).

And the GI50 (U-251)?
The GI50 was 34.3 µM (inactive).

And the GI50 (SF-268)?
Its GI50 is 29 µM (inactive).

And the GI50 (A498)?
The GI50 was 53.7 µM (inactive).

And the GI50 (SN12C)?
Its GI50 is 68.4 µM (inactive).

And the GI50 (SF-539)?
The GI50 was 36 µM (inactive).

What about the GI50 (HCT-15) of the same compound?
The GI50 was 41.7 µM.

Which results are given for `O=C(NC1=C(Cl)C(=O)c2ccccc2C1=O)C(=O)c1c(O)c2ccccc2oc1=O`?
GI50 (BT-549): 3.06 µM (inactive); GI50 (KM12): 4.55 µM (inactive); GI50 (T47D): 4.83 µM (inactive); GI50 (786-0): 6.24 µM (inactive); GI50 (M14): 1.83 µM (inactive); GI50 (NCI/ADR-RES): 3.13 µM (inactive); GI50 (HOP-92): 12.4 µM (inactive); GI50 (ACHN): 3.4 µM (inactive); GI50 (SK-MEL-2): 2.32 µM (inactive); GI50 (HOP-62): 5.46 µM (inactive); GI50 (NCI-H23): 1.53 µM (inactive); GI50 (MDA-MB-435): 1.39 µM (inactive); GI50 (IGROV-1): 3.27 µM (inactive); GI50 (UACC-257): 1.51 µM (inactive); GI50 (Malme-3M): 1.07 µM (active); GI50 (SK-MEL-5): 0.368 µM (active); GI50 (UO-31): 7.66 µM (inactive); GI50 (NCI-H522): 3.69 µM (inactive); GI50 (DU-145): 1.49 µM (inactive); GI50 (SR): 3.04 µM (inactive); GI50 (RXF 393): 5.62 µM (inactive); GI50 (HT-29): 3.07 µM (inactive); GI50 (HCT-116): 2.56 µM (inactive); GI50 (SNB-75): 5.14 µM (inactive); GI50 (A549): 2.33 µM (inactive); GI50 (UACC-62): 2.3 µM (inactive); GI50 (TK-10): 17.5 µM (inactive); GI50 (SW-620): 5.22 µM (inactive); GI50 (COLO 205): 5.87 µM (inactive); GI50 (NCI-H460): 2.54 µM (inactive); GI50 (CAKI-1): 9.66 µM (inactive); GI50 (SK-MEL-28): 2.39 µM (inactive); GI50 (SK-OV-3): 12.6 µM (inactive); GI50 (OVCAR-8): 3.44 µM (inactive); GI50 (Hs-578T): 5.2 µM (inactive); GI50 (HCC 2998): 8.11 µM (inactive); GI50 (CCRF-CEM): 5.94 µM (inactive); GI50 (K562): 5.15 µM (inactive); GI50 (MDA-N): 1.37 µM (inactive); GI50 (OVCAR-3): 1.16 µM (inactive); GI50 (SNB-19): 4.6 µM (inactive); GI50 (OVCAR-5): 11.5 µM (inactive); GI50 (SF-295): 2.46 µM (inactive); GI50 (PC-3): 2.88 µM (inactive); GI50 (MOLT-4): 4.65 µM (inactive); GI50 (RPMI-8226): 6.19 µM (inactive); GI50 (HL-60): 3.21 µM (inactive); GI50 (EKVX): 9.42 µM (inactive); GI50 (NCI-H226): 9.18 µM (inactive); GI50 (MCF7): 1.62 µM (inactive); GI50 (MDA-MB-231): 3.48 µM (inactive); GI50 (OVCAR-4): 7.4 µM (inactive); GI50 (LOX IMVI): 2 µM (inactive); GI50 (U-251): 5.74 µM (inactive); GI50 (SF-268): 5.62 µM (inactive); GI50 (A498): 14.7 µM (inactive); GI50 (SN12C): 3.7 µM (inactive); GI50 (SF-539): 2.8 µM (inactive); GI50 (HCT-15): 3.18 µM
